According to patent publication US7595401B2, “Therapeutic compounds and their use in cancer” (Myriad Pharmaceuticals, Inc., priority 2006, dated 2009):
pIC50: −log10 of the molar value.

Each molecule was assayed on purified human Hsp90 (assay: Binding Assay: fluorescence polarization with BODIPY-labeled geldanamycin). Conditions: 5 μM compound, BODIPY-GM 10 nM, Hsp90 30 nM.
Procedure, shortened: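 Compounds in 2% DMSO final compete with 10 nM BODIPY-GM for 30 nM purified human Hsp90, incubated overnight at room temperature in pH 7.3 HEPES buffer containing Na2MoO4 and DTT. Polarization (mP, ex/em 485/530) normalized to DMSO gives percent inhibition; autofluorescence-confounded data excluded.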
`Nc1ncn(CCc2cccc(F)c2)c2nc(Sc3cc4c(cc3Br)OCO4)nc1-2` [Example 110, 8-(6-bromo-benzo[1,3]dioxol-5-ylsulfanyl)-3-[2-(3-fluoro-phenyl)-ethyl]-3H-purin-6-ylamine] was tested, and the “% Inhibition at 5 μM Compound Concentration” value (“% Inhibition” for short) was 16%.
`CCOc1cc(CCn2cnc(N)c3nc(Sc4cc(OC)ccc4OC)nc2-3)ccc1OC` [Example 112, 8-(2,5-dimethoxy-phenylsulfanyl)-3-[2-(3-ethoxy-4-methoxy-phenyl)-ethyl]-3H-purin-6-ylamine] was tested, and the “% Inhibition” value was 0%.
With `COc1ccc(OC)c(Sc2nc3c(N)ncn(CC(c4ccccc4)C(C)C)c-3n2)c1` (centres unmarked) [Example 114, 8-(2,5-dimethoxy-phenylsulfanyl)-3-(3-methyl-2-phenyl-butyl)-3H-purin-6-ylamine] the “% Inhibition” value was 14%.
With `COc1ccc(OC)c(Sc2nc3c(N)ncn(CCc4cc(C)ccc4C)c-3n2)c1` [Example 116, 8-(2,5-dimethoxy-phenylsulfanyl)-3-[2-(2,5-dimethyl-phenyl)-ethyl]-3H-purin-6-ylamine] the “% Inhibition” value was 0%.
In the case of `CCOc1cc(CCn2c(Sc3cc4c(cc3Br)OCO4)nc3c(N)ncnc32)ccc1OC` [Example 117, 8-(6-Bromo-benzo[1,3]dioxol-5-ylsulfanyl)-9-[2-(3-ethoxy-4-methoxy-phenyl)-ethyl]-9H-purin-6-ylamine], the “% Inhibition” value was 54%.
In the case of `CCOc1cc(CCn2cnc(N)c3nc(Sc4cc5c(cc4Br)OCO5)nc2-3)ccc1OC` [Example 118, 8-(6-bromo-benzo[1,3]dioxol-5-ylsulfanyl)-3-[2-(3-ethoxy-4-methoxy-phenyl)-ethyl]-3H-purin-6-ylamine], the “% Inhibition” value was 0%.
For `COc1ccc(OC)c(Sc2nc3c(N)ncnc3n2CC(c2ccc(Cl)cc2)C(C)C)c1` (centres unmarked) [Example 119, 9-[2-(4-Chloro-phenyl)-3-methyl-butyl]-8-(2,5-dimethoxy-phenylsulfanyl)-9H-purine-6-ylamine], the “% Inhibition” value was 15%.
`COc1ccc(OC)c(Sc2nc3c(N)ncn(CC(c4ccc(Cl)cc4)C(C)C)c-3n2)c1` (centres unmarked) [Example 120, 3-[2-(4-chloro-phenyl)-3-methyl-butyl]-8-(2,5-dimethoxy-phenylsulfanyl)-3H-purine-6-ylamine] was tested, and the “% Inhibition” value was 0%.
`COc1ccc(OC)c(Sc2nc3c(N)ncnc3n2CCc2ccc(F)cc2F)c1` [Example 121, 9-[2-(2,4-Difluoro-phenyl)-ethyl]-8-(2,5-dimethoxy-phenylsulfanyl)-9H-purine-6-ylamine] was tested, and the “% Inhibition” value was 54%.
In the case of `COc1ccc(OC)c(Sc2nc3c(N)ncn(CCc4c(F)cccc4Cl)c-3n2)c1` [Example 123, 3-[2-(2-chloro-6-fluoro-phenyl)-ethyl]-8-(2,5-dimethoxy-phenylsulfanyl)-3H-purine-6-ylamine], the “% Inhibition” value was 0%.
`Cc1ccc(C)c(CCn2cnc(N)c3nc(Sc4cc5c(cc4Br)OCO5)nc2-3)c1` [Example 125, 8-(6-bromo-benzo[1,3]dioxol-5-ylsulfanyl)-3-[2-(2,5-dimethyl-phenyl)-ethyl]-3H-purin-6-ylamine] was tested, and the “% Inhibition” value was 12%.
In the case of `CC(C)C(Cn1cnc(N)c2nc(Sc3cc4c(cc3Br)OCO4)nc1-2)c1ccccc1` (centres unmarked) [Example 127, 8-(6-bromo-benzo[1,3]dioxol-5-ylsulfanyl)-3-(3-methyl-2-phenyl-butyl)-3H-purin-6-ylamine], the “% Inhibition” value was 51%.
In the case of `Nc1ncn(CCc2c(Cl)cccc2Cl)c2nc(Sc3cc4c(cc3Br)OCO4)nc1-2` [Example 129, 8-(6-bromo-benzo[1,3]dioxol-5-ylsulfanyl)-3-[2-(2,6-dichloro-phenyl)-ethyl]-3H-purin-6-ylamine], the “% Inhibition” value was 54%.
With `Nc1ncn(CCc2c(F)cccc2Cl)c2nc(Sc3cc4c(cc3Br)OCO4)nc1-2` [Example 131, 8-(6-bromo-benzo[1,3]dioxol-5-ylsulfanyl)-3-[2-(2-chloro-6-fluoro-phenyl)-ethyl]-3H-purin-6-ylamine] the “% Inhibition” value was 18%.
In the case of `COc1ccc(OC)c(Sc2nc3c(N)ncnc3n2CCc2cc(C)cc(C)c2)c1` [Example 132, 8-(2,5-Dimethoxy-phenylsulfanyl)-9-[2-(3,5-dimethyl-phenyl)-ethyl]-9H-purine-6-ylamine], the “% Inhibition” value was 54%.
With `COc1ccc(OC)c(Sc2nc3c(N)ncn(CCc4cc(C)cc(C)c4)c-3n2)c1` [Example 133, 8-(2,5-dimethoxy-phenylsulfanyl)-3-[2-(3,5-dimethyl-phenyl)-ethyl]-3H-purine-6-ylamine] the “% Inhibition” value was 0%.
`COc1ccc(OC)c(Sc2nc3c(N)ncn(CCc4ccccn4)c-3n2)c1` [Example 136, 8-(2,5-Dimethoxy-phenylsulfanyl)-3-(2-pyridin-2-yl-ethyl)-3H-purin-6-ylamine] was tested, and the “% Inhibition” value was 16%.
In the case of `COc1ccc(OC)c(Sc2nc3c(N)ncn(CCc4cccc(I)c4)c-3n2)c1` [Example 138, 8-(2,5-dimethoxy-phenylsulfanyl)-3-[2-(3-iodo-phenyl)-ethyl]-3H-purin-6-ylamine], the “% Inhibition” value was 0%.
With `COc1ccc(OC)c(Sc2nc3c(N)ncn(CCc4ccc(F)cc4Cl)c-3n2)c1` [Example 140, 3-[2-(2-chloro-4-fluoro-phenyl)-ethyl]-8-(2,5-dimethoxy-phenylsulfanyl)-3H-purin-6-ylamine] the “% Inhibition” value was 0%.
With `COc1ccc(OC)c(Sc2nc3c(N)ncn(CCc4ccccc4Br)c-3n2)c1` [Example 142, 3-[2-(2-bromo-phenyl)-ethyl]-8-(2,5-dimethoxy-phenylsulfanyl)-3H-purin-6-ylamine] the “% Inhibition” value was 0%.
In the case of `COc1ccc(OC)c(Sc2nc3c(N)ncn(CCc4cc(F)cc(F)c4)c-3n2)c1` [Example 144, 3-[2-(3,5-difluoro-phenyl)-ethyl]-8-(2,5-dimethoxy-phenylsulfanyl)-3H-purin-6-ylamine], the “% Inhibition” value was 0%.

Same assay, conditions: BODIPY-GM 10 nM, Hsp90 30 nM
For `CCOc1cc(CCn2c(Sc3cc(OC)ccc3OC)nc3c(N)ncnc32)ccc1OC` [Example 111, 8-(2,5-Dimethoxy-phenylsulfanyl)-9-[2-(3-ethoxy-4-methoxy-phenyl)-ethyl]-9H-purin-6-ylamine], the pIC50 was 5.00.
`COc1ccc(OC)c(Sc2nc3c(N)ncnc3n2CC(c2ccccc2)C(C)C)c1` (centres unmarked) [Example 113, 8-(2,5-Dimethoxy-phenylsulfanyl)-9-(3-methyl-2-phenyl-butyl)-9H-purin-6-ylamine] was tested, and the pIC50 was 6.26.
`COc1ccc(OC)c(Sc2nc3c(N)ncnc3n2CCc2cc(C)ccc2C)c1` [Example 115, 8-(2,5-Dimethoxy-phenylsulfanyl)-9-[2-(2,5-dimethyl-phenyl)-ethyl]-9H-purin-6-ylamine] was tested, and the pIC50 was 6.96.
Molecule `CCOc1cc(CCn2c(Sc3cc4c(cc3Br)OCO4)nc3c(N)ncnc32)ccc1OC` [Example 117, 8-(6-Bromo-benzo[1,3]dioxol-5-ylsulfanyl)-9-[2-(3-ethoxy-4-methoxy-phenyl)-ethyl]-9H-purin-6-ylamine] has a pIC50 of 6.52.
In the case of `COc1ccc(OC)c(Sc2nc3c(N)ncnc3n2CCc2ccc(F)cc2F)c1` [Example 121, 9-[2-(2,4-Difluoro-phenyl)-ethyl]-8-(2,5-dimethoxy-phenylsulfanyl)-9H-purine-6-ylamine], the pIC50 was 6.28.
Work on `COc1ccc(OC)c(Sc2nc3c(N)ncnc3n2CCc2c(F)cccc2Cl)c1` [Example 122, 9-[2-(2-chloro-6-fluoro-phenyl)-ethyl]-8-(2,5-dimethoxy-phenylsulfanyl)-9H-purine-6-ylamine] yielded a pIC50 of 7.07.
Work on `Cc1ccc(C)c(CCn2c(Sc3cc4c(cc3Br)OCO4)nc3c(N)ncnc32)c1` [Example 124, 8-(6-Bromo-benzo[1,3]dioxol-5-ylsulfanyl)-9-[2-(2,5-dimethyl-phenyl)-ethyl]-9H-purin-6-ylamine] yielded a pIC50 of 6.66.
With `CC(C)C(Cn1c(Sc2cc3c(cc2Br)OCO3)nc2c(N)ncnc21)c1ccccc1` (centres unmarked) [Example 126, 8-(6-Bromo-benzo[1,3]dioxol-5-ylsulfanyl)-9-(3-methyl-2-phenyl-butyl)-9H-purin-6-ylamine] the pIC50 was 6.52.
With `Nc1ncnc2c1nc(Sc1cc3c(cc1Br)OCO3)n2CCc1c(Cl)cccc1Cl` [Example 128, 8-(6-Bromo-benzo[1,3]dioxol-5-ylsulfanyl)-9-[2-(2,6-dichloro-phenyl)-ethyl]-9H-purin-6-ylamine] the pIC50 was 7.18.
With `Nc1ncnc2c1nc(Sc1cc3c(cc1Br)OCO3)n2CCc1c(F)cccc1Cl` [Example 130, 8-(6-Bromo-benzo[1,3]dioxol-5-ylsulfanyl)-9-[2-(2-chloro-6-fluoro-phenyl)-ethyl]-9H-purin-6-ylamine] the pIC50 was 7.40.
With `COc1ccc(OC)c(Sc2nc3c(N)ncnc3n2CCc2cc(C)cc(C)c2)c1` [Example 132, 8-(2,5-Dimethoxy-phenylsulfanyl)-9-[2-(3,5-dimethyl-phenyl)-ethyl]-9H-purine-6-ylamine] the pIC50 was 6.30.
`COc1ccc(OC)c(Sc2nc3c(N)ncnc3n2CCc2ccncc2)c1` [Example 134, 8-(2,5-Dimethoxy-phenylsulfanyl)-9-(2-pyridin-4-yl-ethyl)-9H-purin-6-ylamine] was tested, and the pIC50 was less than 5.52.
With `COc1ccc(OC)c(Sc2nc3c(N)ncnc3n2CCc2ccccn2)c1` [Example 135, 8-(2,5-Dimethoxy-phenylsulfanyl)-9-(2-pyridin-2-yl-ethyl)-9H-purin-6-ylamine] the pIC50 was 5.89.
Work on `COc1ccc(OC)c(Sc2nc3c(N)ncnc3n2CCc2cccc(I)c2)c1` [Example 137, 8-(2,5-Dimethoxy-phenylsulfanyl)-9-[2-(3-iodo-phenyl)-ethyl]-9H-purin-6-ylamine] yielded a pIC50 of 6.68.
Molecule `COc1ccc(OC)c(Sc2nc3c(N)ncnc3n2CCc2ccc(F)cc2Cl)c1` [Example 139, 9-[2-(2-chloro-4-fluoro-phenyl)-ethyl]-8-(2,5-dimethoxy-phenylsulfanyl)-9H-purin-6-ylamine] has a pIC50 of 7.05.
Work on `COc1ccc(OC)c(Sc2nc3c(N)ncnc3n2CCc2ccccc2Br)c1` [Example 141, 9-[2-(2-Bromo-phenyl)-ethyl]-8-(2,5-dimethoxy-phenylsulfanyl)-9H-purin-6-ylamine] yielded a pIC50 of 7.40.
`COc1ccc(OC)c(Sc2nc3c(N)ncnc3n2CCc2cc(F)cc(F)c2)c1` [Example 143, 9-[2-(3,5-Difluoro-phenyl)-ethyl]-8-(2,5-dimethoxy-phenylsulfanyl)-9H-purin-6-ylamine] gave a pIC50 of less than 5.52.
